Data reported in patent US20080090900A1, “ANTIBIOTIC BUSHRIN” (University of Karachi, priority 2006, published 2008).
Values after ≈ are worked out from the molar mass of the structure shown. “Also recorded” adds a separate entry of the source. Like-named read-outs stand apart in the source and are kept apart here.

Assays:
[1] = test system: Salmonella typhi; test: disc diffusion technique; assay type: cell-based
[2] = test system: Escherichia coli; assay type: cell-based
[3] = test system: Serratia marcescens; test: disc diffusion technique; assay type: cell-based
[4] = test system: Salmonella typhi; assay type: cell-based; settings: Salmonella enterica
[5] = test system: Streptococcus group G; test: disc diffusion technique; assay type: cell-based; settings: 150 μg disc
[6] = test system: Candida albicans; assay type: cell-based; settings: MIC determination
[7] = test system: Staphylococcus aureus; assay type: cell-based
[8] = test system: Shewanella putrifacians; test: disc diffusion technique; assay type: cell-based; settings: 150 μg disc, read-out: Sensitivity (width of inhibition zone)
[9] = test system: Serratia marcescens; assay type: cell-based
[10] = test system: Proteus mirabilis; assay type: cell-based
[11] = test system: Proteus mirabilis; test: disc diffusion technique; assay type: cell-based
[12] = test system: Enterococcus faecalis; test: disc diffusion technique; assay type: cell-based; settings: 150 μg disc, read-out: Sensitivity (width of inhibition zone)
[13] = test system: Staphylococcus aureus; test: Spheroplasting activities; assay type: cell-based; settings: for formation of osmotically fragile spheroplasts: Luria broth with 0.3M sucrose, 90 minutes, phase contrast microscope
Experimental: Aliquots (100 μl) of an exponential phase culture(A600,0.05) grown in Luria broth supplemented with 0.3M concentration of sucrose were dispensed into test tubes containing different concentration of Compound 1 and 1 μl/ml ampicillin as positive control. The tubes were then incubated at 30° C. with shaking at 140 rpm. After 90 minutes, the cells were examined by phase contrast microscope for any morphological changes or for the presence of spheroplast. To confirm the osmotic fragility of the spheroplast the lytic effect of 2-3 μl of water added under the cover slip was tested.

[14] = test system: Bacillus cereus; test: disc diffusion technique; assay type: cell-based; settings: 150 μg disc, read-out: Sensitivity (width of inhibition zone)
[15] = test system: Proteus morgani; test: disc diffusion technique; assay type: cell-based; settings: 150 μg disc, read-out: Sensitivity (width of inhibition zone)
[16] = test system: MSSA methicillin sensitive staphylococcus aureus; test: disc diffusion technique; assay type: cell-based
[17] = test system: Bacillus cereus; assay type: cell-based
[18] = test system: Escherichia coli; test: disc diffusion technique; assay type: cell-based; settings: 150 μg disc, read-out: Sensitivity (width of inhibition zone)
[19] = test system: Streptococcus sp; assay type: cell-based
[20] = test system: Proteus morgani; assay type: cell-based
[21] = test system: Staphylococcus aureus; test: Phase contrast microscopy; assay type: cell-based; settings: 60 μl/ml, immediately after treatment
Experimental: (§1) An exponential phase culture (A600, 0.05) of Bacillus subtilis and Staphylococcus aureus grown in Luria broth was treated with 50 μl/ml of Compound 1 for Bacillus subtilis and 60 μl/ml for Staphylococcus aureus and slides were immediately made in 1% agarose using 4 μl of Compound 1 treated cultures, time lapse images were obtained under phase contrast microscope, particular care was taken to minimize the sample exposure to UV light, image grabbing were performed essentially as described by Edwards and Errrington. (Edwards, D. H., and Errington, J.(1997). The Bacillus subtilis […] protein targets to the division septum and control the site specificity of cell division. Mol Microbiol 24:905-915).

[22] = test system: Bacillus subtilis; test: Phase contrast microscopy; assay type: cell-based; settings: 50 μl/ml, immediately after treatment
Experimental: as §1

[23] = test system: Enterobacter faecalis; assay type: cell-based
[24] = test system: Staphylococcus aureus; test: Bacteriolytic assay; assay type: cell-based; settings: 600 nm, 30° C., 0-360 min, various concentrations
Experimental: The seed culture of Staphylococcus aureus in Luria broth (LB) were washed twice with sterile distilled water containing 0.9% sodium chloride and the absorbance was adjusted to 0.05 at 600 nm. The bacterial cell suspension was divided into aliquots of 5 ml each placed in sterile test tube and exposed to Compound 1 at various concentration, untreated bacterial suspension were used as the negative control.

[25] = test system: MSSA methicillin sensitive staphylococcus aureus; assay type: cell-based
[26] = test system: Enterococcus faecalis; assay type: cell-based
[27] = test system: Bacillus subtilis; test: disc diffusion technique; assay type: cell-based
[28] = test system: Clostridium sporogenes; test: microbe, parasite or virus in culture; assay type: cell-based; settings: Clostridium sporogenes, read-out: Sensitivity (width of inhibition zone)
[29] = test system: Shewanella putrifacians; assay type: cell-based
[30] = test system: Clostridium sporogenes; test: microbe, parasite or virus in culture; assay type: cell-based
[31] = test system: Candida albicans; test: disc diffusion technique; assay type: cell-based
[32] = test system: Vibrio cholera; test: disc diffusion technique; assay type: cell-based
[33] = test system: Enterococcus faecium; test: disc diffusion technique; assay type: cell-based; settings: 150 μg disc, read-out: Sensitivity (width of inhibition zone)
[34] = test system: Clostridium perfringens; assay type: cell-based
[35] = test system: Vibrio cholera; assay type: cell-based; settings: Vibrio cholerae
[36] = test system: Enterobacter faecalis; test: disc diffusion technique; assay type: cell-based
[37] = test system: Staphylococcus epidermidis; assay type: cell-based
[38] = test system: Hafnia alvei; test: disc diffusion technique; assay type: cell-based
[39] = test system: Vibrio harveyi; assay type: cell-based
[40] = test system: Bacillus subtilis; assay type: cell-based
[41] = test system: Staphylococcus aureus (ATCC33591); test: Time kill experiment; settings: for course of viable bacterial cell count: at two and four times the MIC
[42] = test system: Bacillus steriothermophilus; test: disc diffusion technique; assay type: cell-based; settings: 150 μg disc, read-out: Sensitivity (width of inhibition zone)
[43] = Heat stability test (antibacterial activity by disk diffusion after heating); assay type: physicochemical
Experimental: […] After the treatment, the liquid in each tube was evaporated completely and Compound 1 was re-dissolved in methanol to give an appropriate concentration. Then antibacterial activity was evaluated in triplicate by the disk diffusion method.

[44] = test system: Gram-positive bacteria; assay type: cell-based
Experimental: (§2) The minimum inhibitory concentration (MIC) of Compound 1 was determined by the standard microdilution method described in the national committee for clinical laboratory standards (National Committee for Clinical Laboratory Standards, 1997. Method for dilution antimicrobial susceptibility test for bacteria, that grow aerobically, 4th ed., p, 1-29. National Committee for Clinical Laboratory Standards) using Muller Hinton broth medium (Oxoid) incubated at 37° C. for 24 h. […] This substance was slightly active against Streptococcus sp for which the MIC was 200 μg/ml.

[45] = test system: Gram negative bacteria; assay type: cell-based
Experimental: as §2

[46] = test system: Clostridium perfringens; test: microbe, parasite or virus in culture; assay type: cell-based
[47] = test system: Klebsiella aerogenes; test: disc diffusion technique; assay type: cell-based; settings: 150 μg disc
[48] = test system: Staphylococcus epidermidis; test: disc diffusion technique; assay type: cell-based
[49] = test system: Hafnia alvei; assay type: cell-based
[50] = test system: Bacillus subtilis; test: Complete killing of Bacillus subtilis; assay type: cell-based
[51] = test system: Bacillus steriothermophilus; assay type: cell-based
[52] = test system: Vibrio harveyi; test: disc diffusion technique; assay type: cell-based; settings: 150 μg disc, read-out: Sensitivity (width of inhibition zone)
[53] = test system: Enterococcus faecium; assay type: cell-based
[54] = 150 μg disc, read-out: Sensitivity (width of inhibition zone)

## Cc1cc(O)c2c(c1)C=CC(C)(c1ccoc1)C2 (centres unmarked) [Compound 1, 7-(3-furyl)-3,7-dimethyl-7,8-dihydro-1-naphthalenol]
[1]; Salmonella enterica, TYPHI, read-out: Sensitivity (width of inhibition zone)
  zone of inhibition at 150 µg/disc: 15 to 20 mm
[1]; disc diffusion, Salmonella typhi
  antibacterial activity: active; also recorded: activity
[2]
  MIC: 75 µg/mL (≈ 312 µM)
[3]; 150 μg disc, Serratia marcescens, read-out: Sensitivity (width of inhibition zone)
  zone of inhibition at 150 µg/disc: 15 to 20 mm
[3]; Serratia marcesens
  antibacterial activity: active; also recorded: activity
[4]
  MIC: 75 µg/mL (≈ 312 µM)
[5]
  Sensitivity (width of inhibition zone): −
[6]
  activity against Candida albicans: not found active
[7]; Staphylococcus aureus
  MIC: 50 to 100 µg/mL (≈ 208 to 416 µM)
[7]; Staphylococcus aureus (ATCC33591), stated in time kill experiment, read-out: MIC
  MIC: 50 µg/mL (≈ 208 µM)
[8]
  zone of inhibition at 150 µg/disc: 10 to 15 mm
[9]
  MIC: 60 µg/mL (≈ 250 µM)
[9]; Serratia marcescens, read-out: MIC
  MIC: 60 µg/mL (≈ 250 µM)
[10]
  MIC: 75 µg/mL (≈ 312 µM)
[10]; Proteus mirabilis, read-out: MIC
  MIC: 75 µg/mL (≈ 312 µM)
[11]
  antibacterial activity: active; also recorded: activity
[11]; [54]
  zone of inhibition at 150 µg/disc: 18 to 30 mm
[12]
  zone of inhibition at 150 µg/disc: 18 to 30 mm
[13]
  formation of osmotically fragile spheroplasts: did not induce
[13]; Staphylococcus aureus
  killing of cells in osmotically protected medium: killed
[14]
  zone of inhibition at 150 µg/disc: 18 to 30 mm
[15]
  zone of inhibition at 150 µg/disc: 18 to 30 mm
[16]; Staphylococcus aureus MSSA
  antibacterial activity: active; also recorded: activity
[16]; Staphylococcus aureus, 150 μg disc, MSSA, read-out: Sensitivity (width of inhibition zone)
  zone of inhibition at 150 µg/disc: 18 to 30 mm
[17]
  MIC: 60 µg/mL (≈ 250 µM)
[18]
  zone of inhibition at 150 µg/disc: 10 to 15 mm
[19]
  MIC: 200 µg/mL (≈ 832 µM)
[20]
  MIC: 75 µg/mL (≈ 312 µM)
[21]
  morphological change of treated cells (time lapse images): complete lyses
[22]
  morphological change of treated cells (time lapse images): uniform and consistent decrease in size of cells
[23]
  MIC: 100 µg/mL (≈ 416 µM)
[24]
  absorbance of Staphylococcus aureus cell suspension (lysis): Reduction of the absorbance
[25]
  MIC: 60 µg/mL (≈ 250 µM)
[26]
  MIC: 50 µg/mL (≈ 208 µM)
[27]
  antibacterial activity: active; also recorded: activity
[27]; [54]
  zone of inhibition at 150 µg/disc: 18 to 30 mm
[28]
  zone of inhibition at 150 µg/disc: 10 to 15 mm
[29]
  MIC: 75 µg/mL (≈ 312 µM)
[30]
  MIC: 125 µg/mL (≈ 520 µM)
[31]
  activity: not active
[31]; 150 μg disc
  Sensitivity (width of inhibition zone): −
[32]
  antibacterial activity: active; also recorded: activity
[33]
  zone of inhibition at 150 µg/disc: 18 to 30 mm
[34]
  MIC: 100 µg/mL (≈ 416 µM)
[35]
  MIC: 60 µg/mL (≈ 250 µM)
[36]
  antibacterial activity: active; also recorded: activity
[37]
  MIC: 50 to 100 µg/mL
[37]; Staphylococcus epidermidis, read-out: MIC
  MIC: 50 µg/mL (≈ 208 µM)
[38]
  antibacterial activity: active; also recorded: activity
[38]; [54]
  zone of inhibition at 150 µg/disc: 15 to 20 mm
[39]
  MIC: 75 µg/mL (≈ 312 µM)
[40]
  MIC: 50 to 60 µg/mL
[40]; Bacillus subtilis, read-out: MIC
  MIC: 50 µg/mL (≈ 208 µM)
[41]; Staphylococcus aureus
  concentration able to kill completely: 125 µg/mL
[41]; at MIC 50 μg/ml
  exposure time after which number of viable bacterial cells decreased: 8 h
[41]
  course of viable bacterial cell count: decreased drastically
[41]; four times the MIC
  time after which viable count decreased drastically: 1 h
[41]; same concentration and length of exposure, vs vancomycin, nisin, tetracycline, ampicillin
  killing rate compared with test antibiotics: much higher
[41]; time kill, Staphylococcus aureus
  bactericidal activity: rapidly bactericidal
[41]; two times the MIC
  time after which viable count decreased drastically: 2 h
[42]
  zone of inhibition at 150 µg/disc: 18 to 30 mm
[43]; at 200° C.
  antibacterial activity after heat treatment: completely lost
[43]; treatment at 120° C.
  antibacterial activity after heat treatment: significantly reduced
[44]
  MIC: 50 to 75 µg/mL (≈ 208 to 312 µM)
[45]
  MIC: 75 to 125 µg/mL (≈ 312 to 520 µM)
[46]; Clostridium perfringens, read-out: Sensitivity (width of inhibition zone)
  zone of inhibition at 150 µg/disc: 10 to 15 mm
[46]; disc diffusion, anaerobic Clostridium perfringens
  antibacterial activity: less active
[47]
  Sensitivity (width of inhibition zone): −
[48]; 150 μg disc, Staphylococcus epidermidis, read-out: Sensitivity (width of inhibition zone)
  zone of inhibition at 150 µg/disc: 18 to 30 mm
[48]; Staphylococcus epidermids
  antibacterial activity: active; also recorded: activity
[49]
  MIC: 100 µg/mL (≈ 416 µM)
[49]; Hafnia alvei, read-out: MIC
  MIC: 100 µg/mL (≈ 416 µM)
[50]
  concentration that completely killed: 100 µg/mL
[51]
  MIC: 50 to 60 µg/mL
[51]; Bacillus steriothermophilus, read-out: MIC
  MIC: 50 µg/mL (≈ 208 µM)
[52]
  zone of inhibition at 150 µg/disc: 18 to 30 mm
[53]
  MIC: 50 µg/mL (≈ 208 µM)

## CC1(C)S[C@@H]2[C@H](NC(=O)[C@H](N)c3ccccc3)C(=O)N2[C@H]1C(=O)O [ampicillin, reference compound]
[13]
  formation of osmotically fragile spheroplasts: observed
[41]
  course of viable bacterial cell count: decreased gradually

## CN[C@H](CC(C)C)C(=O)N[C@H]1C(=O)N[C@@H](CC(N)=O)C(=O)N[C@H]2C(=O)N[C@H]3C(=O)N[C@H](C(=O)N[C@H](C(=O)O)c4cc(O)cc(O)c4-c4cc3ccc4O)[C@H](O)c3ccc(c(Cl)c3)Oc3cc2cc(c3O[C@@H]2O[C@H](CO)[C@@H](O)[C@H](O)[C@H]2O[C@H]2C[C@](C)(N)[C@H](O)[C@H](C)O2)Oc2ccc(cc2Cl)[C@H]1O [vancomycin, reference compound]
[41]
  course of viable bacterial cell count: decreased gradually
